Measured values: patent US20240393292A1, “ALLERGY ANTIGEN AND EPITOPE THEREOF” (HOYU CO., LTD., priority 2019, published 2024)

Tested on: IgE antibodies from patients
Experiment: Wheat epitope mapping (2): overlapping 10-amino-acid peptide fragments shifted by one amino acid;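 for Rank of partial sequence as epitope binding to IgE antibody: key = sequence deemed particularly important within the common 15-residue sequence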;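 for epitope sequence binding to IgE antibody, rank (Key/Preferably/More preferably): key of grades: preferably = shorter partial sequence still acting as epitope; more preferably = sequence improving IgE binding; key = particularly important sequence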
Format: binding, human
Method in brief: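 Cellulose-bound 10-mer peptides offset by one residue were probed with patient serum IgE and detected by chemiluminescence. Secondary-antibody-only signals were subtracted per peptide. Residual binding was expressed as % of the parent overlapping peptide, scored as none (<30%), poor (30–<50%), somewhat poor (50–<70%) or retained (≥70%).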

[1] = serum of patient P50 (child, general immediate type allergy to wheat), sequence without X
[2] = serum of patient P26 (WDEIA), sequence without X
[3] = serum of patient P35 (WDEIA), sequence without X
[4] = serum of patient P2 (WDEIA), sequence without X
[5] = serum of patient G6 (adult, general immediate type allergy to wheat), sequence without X
[6] = serum of patient G4 (adult, general immediate type allergy to wheat), sequence without X

2549 (QLVQQLCC; REGION 1..8: note = epitope) [compound 2549]
Epitope sequence binding to IgE antibody, rank of the sequence (serum of patient P2 (WDEIA), partial sequence): Key

2300 (DKRVIERFEK; REGION 1..10: note = epitope) [compound 2300]
Epitope sequence binding to IgE antibody, rank of the sequence (Key/Preferably/More preferably) (serum of patient G1 (adult, general immediate type allergy to wheat), sequence without X): Key

2295 (LGGIDKRV; REGION 1..8: note = epitope) [compound 2295]
Epitope sequence binding to IgE antibody, rank of the sequence (Key/Preferably/More preferably/Further preferably) [1]: Preferably

2284 (LGGIDK; REGION 1..6: note = epitope) [compound 2284]
Epitope sequence binding to IgE antibody, rank of the sequence (Key/Preferably/More preferably) [2]: Preferably

2398 (TEIVL; REGION 1..5: note = epitope) [compound 2398]
Epitope sequence binding to IgE antibody, rank of the sequence (Key/Preferably/More preferably) [3]: Preferably

2643 (KEAAEMN; REGION 1..7: note = epitope) [compound 2643]
Epitope sequence binding to IgE antibody, rank of the sequence (serum of patient P20 (WDEIA), partial sequence): Preferably

1791 (PKFL; REGION 1..4: note = epitope) [compound 1791]
epitope sequence binding to IgE antibody, rank (Key/Preferably/More preferably) (serum of patient P3 (WDEIA)): Key

1897 (VPLVQQ; REGION 1..6: note = epitope) [compound 1897]
epitope sequence binding to IgE antibody, rank (Key/Preferably/More preferably) (serum of patient P2 (WDEIA)): Key

1880 (TVRTLQRT; REGION 1..8: note = epitope) [compound 1880]
epitope sequence binding to IgE antibody, rank (Key/Preferably/More preferably) (serum of patient P33 (WDEIA)): Preferably

2373 (TEIV; REGION 1..4: note = epitope) [compound 2373]
Epitope sequence binding to IgE antibody, rank of the sequence (Key/Preferably/More preferably) [2]: Key

1699 (EAANFT; REGION 1..6: note = epitope) [compound 1699]
Rank of partial sequence as epitope binding to IgE antibody (serum of patient P21 (WDEIA), sequence without X): Preferably

1843 (TVRTLQR; REGION 1..7: note = epitope) [compound 1843]
epitope sequence binding to IgE antibody, rank (Key/Preferably/More preferably) (serum of patient P9 (WDEIA)): Preferably

2634 (EAAE; REGION 1..4: note = epitope) [compound 2634]
Epitope sequence binding to IgE antibody, rank of the sequence (serum of patient P7 (WDEIA), partial sequence): Key

1390 (PWQQQ; REGION 1..5: note = epitope) [compound 1390]
Epitope sequence binding to IgE antibody, rank of the sequence (serum of patient P15 (WDEIA), sequence without X): Key

2591 (QLVQQL; REGION 1..6: note = epitope) [compound 2591]
Epitope sequence binding to IgE antibody, rank of the sequence (serum of patient P34 (WDEIA), partial sequence): Key

1887 (YTVRTLQRTV; REGION 1..10: note = epitope) [compound 1887]
epitope sequence binding to IgE antibody, rank (Key/Preferably/More preferably) (serum of patient G5 (adult, general immediate type allergy to wheat)): Preferably

1932 (QVPLVQQQ; REGION 1..8: note = epitope) [compound 1932]
epitope sequence binding to IgE antibody, rank (Key/Preferably/More preferably) (serum of patient P17 (WDEIA)): Preferably

1210 (PIQQQP; REGION 1..6: note = epitope) [compound 1210]
Epitope sequence binding to IgE antibody, rank of the sequence (Key/Preferably/More preferably/Further preferably) [4]: Preferably

2588 (QQLC; REGION 1..4: note = epitope) [compound 2588]
Epitope sequence binding to IgE antibody, rank of the sequence (serum of patient P32 (WDEIA), partial sequence): Key

2219 (IRNYRVAI; REGION 1..8: note = epitope) [compound 2219]
Epitope sequence binding to IgE antibody, rank of the sequence (Key/Preferably/More preferably) [4]: Preferably

2221 (IRNYR; REGION 1..5: note = epitope) [compound 2221]
Epitope sequence binding to IgE antibody, rank of the sequence (Key/Preferably/More preferably) (serum of patient P7 (WDEIA), sequence without X): Key

1676 (KVPFVPISG; REGION 1..9: note = epitope) [compound 1676]
Rank of partial sequence as epitope binding to IgE antibody (serum of patient G5 (adult, general immediate type allergy to wheat), sequence without X): Preferably

2688 (YKGPTL; REGION 1..6: note = epitope) [compound 2688]
Epitope sequence binding to IgE antibody, rank of the sequence (serum of patient P29 (WDEIA), partial sequence): Key

2724 (GIGTVPVGRV; REGION 1..10: note = epitope) [compound 2724]
Epitope sequence binding to IgE antibody, rank of the sequence (serum of patient P26 (WDEIA), partial sequence): Key

1878 (TVRTLQRT; REGION 1..8: note = epitope) [compound 1878]
epitope sequence binding to IgE antibody, rank (Key/Preferably/More preferably) (serum of patient P32 (WDEIA)): Preferably

1681 (DKVPF; REGION 1..5: note = epitope) [compound 1681]
Rank of partial sequence as epitope binding to IgE antibody [5]: Preferably

1901 (VPLVQ; REGION 1..5: note = epitope) [compound 1901]
epitope sequence binding to IgE antibody, rank (Key/Preferably/More preferably) (serum of patient P3 (WDEIA)): Key

2737 (KIGG; REGION 1..4: note = epitope) [compound 2737]
Epitope sequence binding to IgE antibody, rank of the sequence (serum of patient P30 (WDEIA), partial sequence): Key

2283 (ERFEKE; REGION 1..6: note = epitope) [compound 2283]
Epitope sequence binding to IgE antibody, rank of the sequence (Key/Preferably/More preferably) (serum of patient P18 (WDEIA), sequence without X): Key

2302 (IDKRVIERFE; REGION 1..10: note = epitope) [compound 2302]
Epitope sequence binding to IgE antibody, rank of the sequence (Key/Preferably/More preferably) [6]: Key

1749 (EAANFT; REGION 1..6: note = epitope) [compound 1749]
epitope sequence binding to IgE antibody, rank (Key/Preferably/More preferably) (serum of patient G6 (adult, general immediate type allergy to wheat)): Key

1876 (VRTLQRT; REGION 1..7: note = epitope) [compound 1876]
epitope sequence binding to IgE antibody, rank (Key/Preferably/More preferably) (serum of patient P31 (WDEIA)): Preferably

1243 (PQQPP; REGION 1..5: note = epitope) [compound 1243]
Epitope sequence binding to IgE antibody, rank of the sequence [2]: Key

1247 (PIQQQP; REGION 1..6: note = epitope) [compound 1247]
Epitope sequence binding to IgE antibody, rank of the sequence (serum of patient P32 (WDEIA), sequence without X): Key

2301 (LGGIDK; REGION 1..6: note = epitope) [compound 2301]
Epitope sequence binding to IgE antibody, rank of the sequence (Key/Preferably/More preferably) [6]: Key

1793 (SGKELEALPK; REGION 1..10: note = epitope) [compound 1793]
epitope sequence binding to IgE antibody, rank (Key/Preferably/More preferably) (serum of patient P9 (WDEIA)): Key

1919 (VPLVQQQ; REGION 1..7: note = epitope) [compound 1919]
epitope sequence binding to IgE antibody, rank (Key/Preferably/More preferably) (serum of patient P10 (WDEIA)): Key

1558 (PLVQQQQF; REGION 1..8: note = epitope) [compound 1558]
Rank of partial sequence as epitope binding to IgE antibody [1]: Preferably

1259 (LPRS; REGION 1..4: note = epitope) [compound 1259]
Epitope sequence binding to IgE antibody, rank of the sequence (Key/Preferably/More preferably/Further preferably) [4]: Key

1922 (QVPLVQQ; REGION 1..7: note = epitope) [compound 1922]
epitope sequence binding to IgE antibody, rank (Key/Preferably/More preferably) (serum of patient P12 (WDEIA)): Key

2435 (KAWSGKTEN; REGION 1..9: note = epitope) [compound 2435]
Epitope sequence binding to IgE antibody, rank of the sequence (Key/Preferably/More preferably) [2]: Preferably

1547 (QVPLVQQQQ; REGION 1..9: note = epitope) [compound 1547]
Rank of partial sequence as epitope binding to IgE antibody (serum of patient P34 (WDEIA), sequence without X): More preferably

1495 (YLQPQQPI; REGION 1..8: note = epitope) [compound 1495]
Rank of partial sequence as epitope binding to IgE antibody [5]: Key

2399 (TEIV; REGION 1..4: note = epitope) [compound 2399]
Epitope sequence binding to IgE antibody, rank of the sequence (Key/Preferably/More preferably) [3]: Key

1760 (EVSSYLKKV; REGION 1..9: note = epitope) [compound 1760]
epitope sequence binding to IgE antibody, rank (Key/Preferably/More preferably) (serum of patient P18 (WDEIA)): Key
